# Data taken from PubChem BioAssay AID1552 (Sanford-Burnham Center for Chemical Genomics, 2009).
# Calls of active or inactive are those of the source. The rule behind the calls is not given here.
# Biological target: Ubiquitin-conjugating enzyme E2 N (Homo sapiens) (UniProt P61088)
# Assay: NMR detection of UBE2N ligand binding – biophysical, purified protein (AID 1552)
# Details: NMR binding to purified UBE2N
# Sequence of Ubiquitin-conjugating enzyme E2 N (Homo sapiens) (P61088 whole entry, looked up): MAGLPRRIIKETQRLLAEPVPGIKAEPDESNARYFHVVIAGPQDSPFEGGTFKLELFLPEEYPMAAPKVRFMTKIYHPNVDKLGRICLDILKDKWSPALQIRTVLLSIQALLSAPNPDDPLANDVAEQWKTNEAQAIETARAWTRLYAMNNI
row,Compound,Kd
1,O=C(/C=C/c1ccc(O)c(O)c1)O[C@@H]1C[C@](O)(C(=O)O)C[C@@H](O)[C@H]1O,> 4 mM (inactive)
2,Cc1nc(NCc2ccco2)nc2c1C(=O)CC(C)C2 (stereo unspecified),> 4 mM (inactive)
3,Cc1nc(-c2cccc(-c3noc(C)n3)c2)no1,> 4 mM (inactive)
4,O=C(O)c1cccnc1-c1nc2ccccc2s1,> 4 mM (inactive)
5,OCc1ccc2c(c1)OCO2,> 4 mM (inactive)
6,Cc1nc(-c2ccccc2)sc1CN,> 4 mM (inactive)
7,O=C1NCCCC1C(=O)N1CCCCC1 (stereo unspecified),> 4 mM (inactive)
8,O=C(O)CCCCCCCC(=O)O,> 4 mM (inactive)
9,CCCCCCCCCCCCCCCCCCOCC(O)CO (stereo unspecified),> 4 mM (inactive)
10,C=C[C@H]1CN2CC[C@H]1C[C@@H]2[C@H](O)c1ccnc2ccccc12,> 4 mM (inactive)
11,O=C(O)c1cccc2c1OCCO2,> 4 mM (inactive)
12,O=C(Nc1ccc(N2CCCC2=O)cc1)c1cccc(F)c1,> 4 mM (inactive)
13,COc1cc2cc3c4cc(OC)c(OC)cc4cc[n+]3c(C)c2cc1OC,> 4 mM (inactive)
14,CC[C@@]1(O)C(=O)OCc2c1cc1n(c2=O)Cc2cc3ccccc3nc2-1,> 4 mM (inactive)
15,O=C(O)c1ccc(N2CCOCC2)cc1,> 4 mM (inactive)
16,Cc1ccccc1NC(=O)C1CC(=O)N=C(N)S1 (stereo unspecified),> 4 mM (inactive)
17,N#Cc1cn(CC(=O)N2CCCC2)c2ccccc12,> 4 mM (inactive)
18,Nc1ccc2ncsc2c1,> 4 mM (inactive)
19,COc1ccc(N/C(N)=N\c2nc(C)cc(C)n2)cc1,> 4 mM (inactive)
20,CCNC(CC(=O)Nc1cccc([N+](=O)[O-])c1)C(=O)O (stereo unspecified),> 4 mM (inactive)
21,COc1ccc(C)cc1S(N)(=O)=O,> 4 mM (inactive)
22,NCC(O)c1ccc(O)cc1 (stereo unspecified),> 4 mM (inactive)
23,N#C/C(=C\c1ccc[nH]1)S(=O)(=O)c1ccccc1,> 4 mM (inactive)
24,CCOC(=O)Cn1cnc2c1c(=O)[nH]c(=O)n2C,> 4 mM (inactive)

row,Compound,Kd
1,Clc1ccccc1-c1nc(-c2cccnc2)no1,> 4 mM (inactive)
2,Cc1ccc(/C=N/n2c(C)nnc2C)cc1,> 4 mM (inactive)
3,CC1(C)Cc2c(c(-c3ccco3)[nH]c(=O)c2C#N)CO1,> 4 mM (inactive)
4,O=C(O)c1ccc2ncccc2c1,> 4 mM (inactive)
5,COc1c2ccoc2cc2oc(=O)ccc12,> 4 mM (inactive)
6,COc1cc([C@@H]2c3cc4c(cc3[C@H](O)[C@H]3COC(=O)[C@@H]23)OCO4)cc(OC)c1OC,> 4 mM (inactive)
7,C=C1CCC2[C@](C)(CO)[C@H](O)CC[C@@]2(C)[C@@H]1C/C=C1/C(=O)OC[C@H]1O (stereo partly specified),> 4 mM (inactive)
8,COc1cc(O)cc(/C=C/c2ccccc2)c1,> 4 mM (inactive)
9,CSc1n[nH]c(NCc2ccccc2)n1,> 4 mM (inactive)
10,CC(=O)N1CCN(C2CCSC2)CC1 (stereo unspecified),> 4 mM (inactive)
11,O=C1CSC(=Nc2ccc(C(=O)O)cc2)N1,> 4 mM (inactive)
12,NC(=O)CSc1nc2ncnc(N)c2[nH]1,> 4 mM (inactive)
13,O=C1NC2NC(=O)N(c3ccccc3)C2N1 (stereo unspecified),> 4 mM (inactive)
14,CC1=CC(C)C(C(=O)O)C(C(=O)N2CCN(C)CC2)C1 (stereo unspecified),> 4 mM (inactive)
15,CN1CCn2c1nc(N1CCOCC1)nc2=O,> 4 mM (inactive)
16,O=C(O)Cn1nc(-c2ccccc2)c2ccccc2c1=O,> 4 mM (inactive)
17,O=C1C2C3CCC(O3)C2C(=O)N1c1ccccc1 (stereo unspecified),> 4 mM (inactive)
18,Oc1ccc2c(c1)OCC1(O)Cc3cc(O)c(O)cc3C21 (stereo unspecified),> 4 mM (inactive)
19,Cn1c(O)c(C2=NC(=S)NC2=O)c2ccccc21,> 4 mM (inactive)
20,Cc1cccc(-n2c(N)cc(=O)[nH]c2=S)c1C,> 4 mM (inactive)
21,COc1ccc(C)cc1S(=O)(=O)Nc1ccccc1C,> 4 mM (inactive)
22,O=C1CCC(=O)N1c1ccc(F)cc1,> 4 mM (inactive)
23,CCN(CC)S(=O)(=O)c1ccc(F)cc1,> 4 mM (inactive)
24,CN(C)c1nc(N2CCOCC2)c2cnn(C)c2n1,> 4 mM (inactive)

row,Compound,Kd
1,COc1c(O)cc2c(c1O)[C@H]1O[C@H](CO)[C@@H](O)[C@H](O)[C@@H]1OC2=O,> 4 mM (inactive)
2,Cc1ccc(N2C(=O)CC(Sc3ncn[nH]3)C2=O)cc1 (stereo unspecified),> 4 mM (inactive)
3,CCOC(=O)c1csc(C)n1,> 4 mM (inactive)
4,Nc1nc(SCC(=O)c2ccc([N+](=O)[O-])cc2)n[nH]1,> 4 mM (inactive)
5,CC(=O)OC1CC[C@@]2(C)C(CCC3C2CC[C@]2(C)C(C4=CC(=O)OC4)C(OC(C)=O)CC32O)C1 (stereo partly specified),> 4 mM (inactive)
6,CC(CC(=O)NN)C1(O)CCCCC1 (stereo unspecified),> 4 mM (inactive)
7,CC(=O)Oc1c(C)c(C)c2c(c1C)CCC(C)(CCCC(C)CCCC(C)CCCC(C)C)O2 (stereo unspecified),> 4 mM (inactive)
8,O=C1NC(=Nc2ccccc2)S/C1=C/c1cccnc1,> 4 mM (inactive)
9,O=C(O)c1ccc(-c2cnco2)cc1,> 4 mM (inactive)
10,COc1cccc(Oc2ccc(N)cc2)c1,> 4 mM (inactive)
11,CC[C@@H]1[C@@H](O)N2C3C[C@H]1C1C(O)[C@]4(C[C@@H]12)c1ccccc1N(C)[C@@H]34 (stereo partly specified),> 4 mM (inactive)
12,O=C(O)c1ccc(NC(=O)c2cccs2)cc1,> 4 mM (inactive)
13,Cc1ccc(S(=O)(=O)CC(=O)N(C)C)cc1,> 4 mM (inactive)
14,Cc1cc(=O)[nH]c(N2CCN(Cc3ccccc3)CC2)n1,> 4 mM (inactive)
15,O=C(O)c1snnc1-c1ccccc1,> 4 mM (inactive)
16,O=C(O)/C=C/C(=O)Nc1ccccc1C(F)(F)F,> 4 mM (inactive)
17,Cc1c(C(=O)Nc2ccccn2)oc2ccccc12,> 4 mM (inactive)
18,Nc1ncnc2c1ncn2CCN1CCOCC1,> 4 mM (inactive)
19,CN(C)CC(O)C1CCOC(C)(C)C1 (stereo unspecified),> 4 mM (inactive)
20,COc1cc(O)c(C(C)=O)c(OC)c1,> 4 mM (inactive)
21,Nc1ccc(OC(F)(F)F)cc1,> 4 mM (inactive)
22,CN1C(=O)c2ccc(C(=O)NC3CCCCC3)cc2C1=O,> 4 mM (inactive)
23,COc1ccccc1NC(=O)c1ccc(C)s1,> 4 mM (inactive)
24,O=C1CCCC(=O)N1Cc1ccco1,> 4 mM (inactive)

row,Compound,Kd
1,O=C(c1ccc(F)cc1)N1CCN(c2ncccn2)CC1,> 4 mM (inactive)
2,COC(=O)c1nc(-c2ccccc2)oc1N(C)C,> 4 mM (inactive)
3,Nc1nc2ccccc2n1CCN1CCCC1,> 4 mM (inactive)
4,NS(=O)(=O)c1ccc2c3c(cccc13)C(=O)N2,> 4 mM (inactive)
5,Cc1ccnc(NS(=O)(=O)c2ccccc2)n1,> 4 mM (inactive)
6,O=C(c1ccc2c(c1)OCO2)N1CCC2(CC1)OCCO2,> 4 mM (inactive)
7,Cc1nc2ccc(F)cc2cc1C(=O)NCc1ccco1,> 4 mM (inactive)
8,C(=Nn1cnnc1)c1ccccc1,> 4 mM (inactive)
9,CCOc1nc(C)ccc1-c1noc(-c2ccncc2)n1,> 4 mM (inactive)
10,O=c1/c(=C/c2ccccc2F)sc2ncnn12,> 4 mM (inactive)
11,O=C(OC[C@H]1O[C@H](OC(=O)c2cc(O)c(O)c(OC(=O)c3cc(O)c(O)c(O)c3)c2)[C@H](OC(=O)c2cc(O)c(O)c(OC(=O)c3cc(O)c(O)c(O)c3)c2)[C@@H](OC(=O)c2cc(O)c(O)c(OC(=O)c3cc(O)c(O)c(O)c3)c2)[C@@H]1OC(=O)c1cc(O)c(O)c(OC(=O)c2cc(O)c(O)c(O)c2)c1)c1cc(O)c(O)c(OC(=O)c2cc(O)c(O)c(O)c2)c1,> 4 mM (inactive)
12,Cc1cc(C(=O)NCc2ccccc2Br)no1,> 4 mM (inactive)
13,c1ccc(Cc2nnc3sc(-c4ccncc4)nn23)cc1,> 4 mM (inactive)
14,O=C(O)Cn1nnn(-c2ccccc2)c1=S,> 4 mM (inactive)
15,CN1CCN(c2ncnc3nc[nH]c23)CC1,> 4 mM (inactive)
16,O=C(Nc1ccccc1F)c1ccncc1,> 4 mM (inactive)
17,Cc1cc(C)n2nc(Cc3ccccc3)nc2n1,> 4 mM (inactive)
18,CC1=[N+]([O-])C2(N)CCc3c(no[n+]3[O-])C2(O)C1 (stereo unspecified),> 4 mM (inactive)
19,Cc1ncc(CC(=O)O)s1,> 4 mM (inactive)
20,COc1cc2c3cc1Oc1cc(ccc1O)C[C@@H]1c4c(cc(OC)c(O)c4Oc4ccc(cc4)C[C@@H]3N(C)CC2)CC[N+]1(C)C,> 4 mM (inactive)
21,O=C(O)c1csc(-c2cccs2)n1,> 4 mM (inactive)
22,Cc1cc(N)ccc1NC(=O)c1ccco1,> 4 mM (inactive)
23,Cc1ccc(-c2nc(N)n(C(=O)c3cccnc3)n2)cc1,> 4 mM (inactive)
24,S=c1oc(-c2ccncc2)nn1CCc1ccncc1,> 4 mM (inactive)

row,Compound,Kd
1,Cc1occc1C(=O)N1CCN(S(C)(=O)=O)CC1,> 4 mM (inactive)
2,NCc1n[nH]c(=O)c2ccccc12,> 4 mM (inactive)
3,COc1cc(OC)c2ccc(=O)oc2c1,> 4 mM (inactive)
4,CSc1ccc(C2NC(=O)CCC2[N+](=O)[O-])cc1 (stereo unspecified),> 4 mM (inactive)
5,Cc1nn2c(=O)nc3sc4c(c3c2[nH]c1=O)CCCC4,> 4 mM (inactive)
6,CCOC(=O)CC1NCCNC1=O (stereo unspecified),> 4 mM (inactive)
7,Cc1cc(NC(=O)Cc2c(F)cccc2Cl)no1,> 4 mM (inactive)
8,Cc1cc(O)cc(=O)n1CCCC(=O)O,> 4 mM (inactive)
9,O=C(Nc1ccon1)c1ccc2c(c1)OCO2,> 4 mM (inactive)
10,COc1c2ccoc2nc2c(OC)c(OCC(O)C(C)(C)O)ccc12 (stereo unspecified),> 4 mM (inactive)
11,O=C(O)c1ccc(-c2ccccn2)s1,> 4 mM (inactive)
12,CCCN1CCC(N2CCC(O)CC2)CC1,> 4 mM (inactive)
13,Clc1ccc2c(N3CCNCC3)ccnc2c1,> 4 mM (inactive)
14,CC(O)C(=O)N/N=C/c1ccccc1 (stereo unspecified),> 4 mM (inactive)
15,NC(=O)NC1NC(=O)NC1=O (stereo unspecified),> 4 mM (inactive)
16,CCN1CCn2c1nc(N1CCOCC1)nc2=O,> 4 mM (inactive)
17,COc1cc2c(cc1OC)C1Cc3ccc(OC)c(OC)c3CN1CC2 (stereo unspecified),> 4 mM (inactive)
18,COc1cnn(Cc2ccccc2)c(=O)c1Cl,> 4 mM (inactive)
19,O=S(=O)(c1ccc(F)c(Cl)c1)N1CCCC1,> 4 mM (inactive)
20,CC(=O)NCS(=O)(=O)c1ccc(C)cc1,> 4 mM (inactive)
